Assay results published in patent publication US9682991B2, “Tricyclic compounds for use as kinase inhibitors” (FUNDACIÓN CENTRO NACIONAL DE INVESTIGACIONES ONCOLOGICAS …, priority 2009, dated 2017).

Columns and labels:
[1] = tested on: MiaPaca-2 cells (pancreas); assay: MTT in vitro cell proliferation / combination assay, MiaPaca-2; assay type: cell-based
Experimental: (§1) Proliferation assays (MTT) were performed as described in: • “Chemical interrogation of FOXO3a nuclear translocation identifies potent and selective inhibitors of phosphoinositide 3-kinases”, W. Link, J. Oyarzabal, B. G. Serelde, M. I. Albarran, O. Rabal, A. Cebria, P. Alfonso, J. Fominaya, O. Renner, S. Peregrina, D. Soilan, P. A. Ceballos, A. I. Hernandez, M. Lorenzo, P. Pevarello, T. G. Granda, G. Kurz, A. Carnero, J. R. Bischoff, J. Biol. Chem. 284 (2009) 28392-28400. Combination Assay
(§2) A combination index score is calculated by the Chou and Talalay method (CalcuSyn software, Biosoft). The strength of synergy is scored using the ranking system Chou and Talalay: CI less than 0.8 indicates synergy, CI between 0.8 and 1.2 indicates additivity and CI greater than 1.2 indicates antagonism.
(§3) The EC50 values of representative combinations were also calculated. The individually measured EC50 values of the chemotherapeutic agent and the example compounds are compared to the EC50 value of the combination. The cell lines are characterised by tumor type.
(§4) Combination assays were performed as described in: • “Pim 1 kinase inhibitor ETP-45299 suppresses cellular proliferation and synergizes with PI3K inhibition”. Blanco-Aparicio, Carmen; Collazo, Ana Maria Garcia; Oyarzabal, Julen; Leal, Juan F.; Albaran, Maria Isabel; Lima, Francisco Ramos; Pequeno, Belen; Ajenjo, Nuria; Becerra, Mercedes; Alfonso, Patricia; Reymundo, Maria Isabel; Palacios, Irene; Mateos, Genoveva; Quinones, Helena; Corrionero, Ana; Carnero, Amancio; Pevarello, Paolo; Lopez, Ana Rodriguez; Fominaya, Jesus; Pastor, Joaquin; Bischoff, James R. Cancer Letters (Shannon, Ireland) 2011, 300(2), 145-153.

[2] = tested on: MV4:11 cells (leukemia, AML); assay: MTT in vitro cell proliferation / combination assay, MV4:11; assay type: cell-based
Experimental: as §2
(§5) The EC50 values of representative combinations were also calculated. The individually measured EC50 values of the chemotherapeutic agent and the example compounds are compared to the EC50 value of the combination. The cell lines are characterised by tumor type. […]

DU145 cells (prostate) = assay: MTT in vitro cell proliferation / combination assay, DU145; assay type: cell-based
Experimental: as §1, §2, §3, §4

[3] = tested on: HTC116 cells (colon carcinoma); assay: MTT in vitro cell proliferation / combination assay, HTC116; assay type: cell-based
Experimental: as §2, §3

SKMel19 cells (melanoma) = assay: MTT in vitro cell proliferation / combination assay, SKMel19; assay type: cell-based
Experimental: as §2, §5

PIM-1 = PIM-1 (Homo sapiens (Human), UniProt P11309); assay: PIM-1 biochemical assay (ADP Hunter); conditions: read-out: PIM1 IC50; semi-quantitative
[4] = tested on: NCI H1975 cells (non small cell lung carcinoma); assay: MTT in vitro cell proliferation / combination assay, NCI H1975; assay type: cell-based
Experimental: as §2, §3
(§6) Blanco-Aparicio, Carmen; Collazo, Ana Maria Garcia; Oyarzabal, Julen; Leal, Juan F.; Albaran, Maria Isabel; Lima, Francisco Ramos; Pequeno, Belen; Ajenjo, Nuria; Becerra, Mercedes; Alfonso, Patricia; Reymundo, Maria Isabel; Palacios, Irene; Mateos, Genoveva; Quinones, Helena; Corrionero, Ana; Carnero, Amancio; Pevarello, Paolo; Lopez, Ana Rodriguez; Fominaya, Jesus; Pastor, Joaquin; Bischoff, James R. Cancer Letters (Shannon, Ireland) 2011, 300(2), 145-153.

[5] = tested on: Jeko-1 cells (Mantle cell lymphoma); assay: MTT in vitro cell proliferation / combination assay, Jeko-1; assay type: cell-based
Experimental: as §2, §3, §6

[6] = tested on: A549 cells (lung adenocarcinoma); assay: MTT in vitro cell proliferation / combination assay, A549; assay type: cell-based
Experimental: as §2, §3, §6

[7] = MiaPaca-2, combination with lapatinib
[8] = MV4:11, combination with GDC-0941
[9] = MV4:11, combination with lapatinib
[10] = DU145, combination with Taxotere
[11] = HTC116, combination with PD-0325901
[12] = HTC116, combination with lapatinib
[13] = SKMel19, combination with GDC-0879
[14] = SKMel19, combination with GDC-0941
[15] = NCI H1975, combination with GDC-0941
[16] = Jeko-1, combination with GDC-0941
[17] = Jeko-1, combination with lapatinib
[18] = A549, combination with GDC-0941

Sequence of PIM-1 (P11309 whole entry): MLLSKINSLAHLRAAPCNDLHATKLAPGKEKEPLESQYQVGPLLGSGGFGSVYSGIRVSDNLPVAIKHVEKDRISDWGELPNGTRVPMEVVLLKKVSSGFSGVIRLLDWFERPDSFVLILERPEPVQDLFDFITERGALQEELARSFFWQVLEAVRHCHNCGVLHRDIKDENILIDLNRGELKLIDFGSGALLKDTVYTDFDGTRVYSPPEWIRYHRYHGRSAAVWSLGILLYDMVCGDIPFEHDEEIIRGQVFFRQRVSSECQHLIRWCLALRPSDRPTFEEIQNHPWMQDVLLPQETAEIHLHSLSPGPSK

EC50 ([1]; Homo sapiens, MIA PaCa-2, MiaPaca-2, example compound alone, read-out: Example EC50): 5 µM | EC50 ([2]; Homo sapiens, MV4:11, example compound alone): 1 µM | EC50 (DU145 cells (prostate); Homo sapiens, DU-145, DU145, example compound alone, read-out: Example EC50): 15 µM | EC50 ([3]; HTC116, example compound alone, read-out: Example EC50): 10 µM | EC50 (SKMel19 cells (melanoma); Homo sapiens, SK-MEL19, SKMel19, example compound alone): 3 µM | EC50 (SKMel19 cells (melanoma); SKMel19, example compound alone): 4 µM | IC50 (PIM-1): < 0.1 µM | EC50 ([5]; Homo sapiens, Jeko-1, example compound alone, read-out: Example EC50): 2.5 µM | EC50 ([6]; Homo sapiens, A549, example compound alone): 6 µM
Structure (SMILES): CN1CCOc2c1c(N1CCC3(CC1)CC(N)C3)nn1c(-c3cccc(OC(F)(F)F)c3)nnc21 [Example 48, 7-[6-Methyl-3-(3-trifluoromethoxy-phenyl)-7,8-dihydro-6H-9-oxa-1,2,3a,4,6-pentaaza-cyclopenta[a]naphthalen-5-yl]-7-aza-spiro[3.5]non-2-ylamine]
Combination Index (CI) [1, 7]: 0.57 | Synergy [1, 7]: ++ (0.3<C1<0.7) | Combination Index (CI) [2, 8]: 0.3 | Synergy [2, 8]: +++ (0.1<CI<0.3) | Combination Index (CI) [2, 9]: 0.548 | Synergy [2, 9]: ++ (0.3<C1<0.7) | Combination Index (CI) (DU145 cells (prostate); [10]): 0.704 | Synergy (DU145 cells (prostate); [10]): + (0.7<C1<1.2) | Combination Index (CI) [3, 11]: 0.759 | Synergy [3, 11]: + (0.7<C1<1.2) | Combination Index (CI) [3, 12]: 0.608 | Synergy [3, 12]: ++ (0.3<C1<0.7) | Combination Index (CI) (SKMel19 cells (melanoma); [13]): 0.319 | Synergy (SKMel19 cells (melanoma); [13]): ++ (0.3<C1<0.7) | Combination Index (CI) (SKMel19 cells (melanoma); [14]): 0.571 | Synergy (SKMel19 cells (melanoma); [14]): ++ (0.3<C1<0.7) | EC50 ([4]; Homo sapiens, NCI H1975, example compound alone): 5 µM | Combination Index (CI) [4, 15]: 0.038 | Synergy [4, 15]: ++++ (CI<0.1) | Combination Index (CI) [5, 16]: 0.718 | Synergy [5, 16]: + (0.7<C1<1.2) | Combination Index (CI) [5, 17]: 0.244 | Synergy [5, 17]: +++ (0.1<CI<0.3) | Combination Index (CI) [6, 18]: 0.12 | Synergy [6, 18]: +++ (0.1<CI<0.3)
